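Growth conditions: 96-well plates. Treatment: test compound, 48 hours, 5 concentrations. Analysis: linear interpolation between bracketing concentrations; unreached endpoints set to highest concentration. Abbreviation: GI50, concentration required for 50% inhibition of growth. Definition used: TGI = concentration required for complete inhibition of growth.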
Key:
Test in all cases: growth of human tumour cells (NCI), 48 h; in the data active = GI50 below about 0.43 µM; inactive = the rest
SF-539 CNS = test system: SF-539 CNS
HS 578T breast = test system: HS 578T breast
NCI-H226 lung = test system: NCI-H226 lung
MDA-MB-231 breast = test system: MDA-MB-231 breast
ACHN renal = test system: ACHN renal
SR leukemia = test system: SR leukemia
SK-MEL-2 melanoma = test system: SK-MEL-2 melanoma
HCT-15 colon = test system: HCT-15 colon
M14 melanoma = test system: M14 melanoma
CAKI-1 renal = test system: CAKI-1 renal
SK-MEL-5 melanoma = test system: SK-MEL-5 melanoma
OVCAR-8 ovarian = test system: OVCAR-8 ovarian
OVCAR-5 ovarian = test system: OVCAR-5 ovarian
HL-60(TB) leukemia = test system: HL-60(TB) leukemia
HT29 colon = test system: HT29 colon
COLO 205 colon = test system: COLO 205 colon
KM12 colon = test system: KM12 colon
HCT-116 colon = test system: HCT-116 colon
HCC-2998 colon = test system: HCC-2998 colon
SNB-75 CNS = test system: SNB-75 CNS
EKVX NSCLC = test system: EKVX NSCLC
SF-295 CNS = test system: SF-295 CNS
NCI-H460 lung = test system: NCI-H460 lung
SK-OV-3 ovarian = test system: SK-OV-3 ovarian
HOP-92 NSCLC = test system: HOP-92 NSCLC
CCRF-CEM leukemia = test system: CCRF-CEM leukemia
SNB-19 CNS = test system: SNB-19 CNS
OVCAR-3 ovarian = test system: OVCAR-3 ovarian

O=C(NCCCCNC(=O)OCc1ccc2c(Cl)cc(Cl)c(O)c2n1)OCc1ccc2c(Cl)cc(Cl)c(O)c2n1
active: GI50 (SF-539 CNS) 0.288 µM | GI50 (SR leukemia) 0.422 µM | GI50 (HCT-116 colon) 0.359 µM | GI50 (CCRF-CEM leukemia) 0.398 µM
> 100 µM: TGI (HS 578T breast) | TGI (NCI-H226 lung) | TGI (MDA-MB-231 breast) | TGI (ACHN renal) | TGI (SR leukemia) | TGI (SK-MEL-2 melanoma) | TGI (HCT-15 colon) | TGI (M14 melanoma) | TGI (CAKI-1 renal) | TGI (OVCAR-8 ovarian) | TGI (OVCAR-5 ovarian) | TGI (HT29 colon) | TGI (COLO 205 colon) | TGI (KM12 colon) | TGI (HCT-116 colon) | TGI (HCC-2998 colon) | TGI (SNB-75 CNS) | TGI (EKVX NSCLC) | TGI (SF-295 CNS) | TGI (NCI-H460 lung) | TGI (SK-OV-3 ovarian) | TGI (HOP-92 NSCLC) | TGI (CCRF-CEM leukemia) | TGI (SNB-19 CNS) | TGI (OVCAR-3 ovarian)
inactive: GI50 (HS 578T breast) 0.979 µM | GI50 (NCI-H226 lung) 24.3 µM | GI50 (MDA-MB-231 breast) 0.685 µM | GI50 (ACHN renal) 0.537 µM | GI50 (SK-MEL-2 melanoma) 1.94 µM | GI50 (HCT-15 colon) 0.89 µM | GI50 (M14 melanoma) 0.502 µM | GI50 (CAKI-1 renal) 0.782 µM | GI50 (SK-MEL-5 melanoma) 1.2 µM | GI50 (OVCAR-8 ovarian) 0.458 µM | GI50 (OVCAR-5 ovarian) 47.1 µM | GI50 (HL-60(TB) leukemia) 0.499 µM | GI50 (HT29 colon) 43.7 µM | GI50 (COLO 205 colon) 24.4 µM | GI50 (KM12 colon) 0.543 µM | GI50 (HCC-2998 colon) 3.62 µM | GI50 (SNB-75 CNS) 1.23 µM | GI50 (EKVX NSCLC) 10.6 µM | GI50 (SF-295 CNS) 4.17 µM | GI50 (NCI-H460 lung) 0.521 µM | GI50 (SK-OV-3 ovarian) 5.12 µM | GI50 (HOP-92 NSCLC) 3.86 µM | GI50 (SNB-19 CNS) 4.7 µM | GI50 (OVCAR-3 ovarian) 0.442 µM
3.95 µM: TGI (SK-MEL-5 melanoma)
1.4 µM: TGI (SF-539 CNS)
2.2 µM: TGI (HL-60(TB) leukemia)
